Test results from patent US20180243298A1, “TRPV3 MODULATORS” (AbbVie Inc., priority 2015, published 2018).
pIC50: −log10 of the molar value.

Target: T1, human TRPV3 (Homo sapiens, UniProt Q8NET8)
T1 construct: expressed in transfected cells; host or cells: HEK293
T1 sequence (Q8NET8 1-790): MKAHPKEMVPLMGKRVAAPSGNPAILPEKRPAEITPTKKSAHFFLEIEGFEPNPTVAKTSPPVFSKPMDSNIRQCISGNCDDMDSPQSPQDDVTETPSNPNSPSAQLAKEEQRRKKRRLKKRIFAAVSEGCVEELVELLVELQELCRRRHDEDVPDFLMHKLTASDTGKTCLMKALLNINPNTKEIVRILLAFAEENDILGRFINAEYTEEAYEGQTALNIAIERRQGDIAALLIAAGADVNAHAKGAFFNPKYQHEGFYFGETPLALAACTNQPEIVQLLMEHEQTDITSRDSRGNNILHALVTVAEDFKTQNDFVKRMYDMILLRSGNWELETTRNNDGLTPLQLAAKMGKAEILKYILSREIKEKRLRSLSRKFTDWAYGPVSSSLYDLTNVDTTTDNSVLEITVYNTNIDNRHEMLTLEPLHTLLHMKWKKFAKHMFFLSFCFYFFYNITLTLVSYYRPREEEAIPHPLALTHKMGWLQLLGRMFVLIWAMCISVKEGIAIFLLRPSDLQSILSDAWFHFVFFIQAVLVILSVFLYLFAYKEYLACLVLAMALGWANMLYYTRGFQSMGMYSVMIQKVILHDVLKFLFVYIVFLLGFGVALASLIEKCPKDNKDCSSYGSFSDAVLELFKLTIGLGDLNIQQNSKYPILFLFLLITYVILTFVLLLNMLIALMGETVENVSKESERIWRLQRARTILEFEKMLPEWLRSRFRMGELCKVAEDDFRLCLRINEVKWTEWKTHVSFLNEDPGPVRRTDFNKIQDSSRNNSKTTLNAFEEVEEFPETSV
Test: Calcium flux assay (FLIPR TETRA), recombinant HEK293 cells expressing TRPV3, 2-APB response
Assay type: cell-based
Conditions: 2-APB at its EC80
Procedure, shortened: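 Response is the peak fluorescence increase over baseline, as a percentage of the compound-free response to 2-APB at EC80. Calcium flux recorded on FLIPR TETRA in stable human or mouse TRPV3 HEK293 cells after 90–120 min Calcium-4 dye loading.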

Row | pIC50 | Structure (SMILES)
1 | > 7.30 | COc1ncnc(SC)c1C(=O)Nc1nc(C(F)(F)F)c(-c2ccccc2C#N)s1 [Example 159, N-[5-(2-cyanophenyl)-4-(trifluoromethyl)-1,3-thiazol-2-yl]-4-methoxy-6-(methylsulfanyl)pyrimidine-5-carboxamide]
2 | > 7.30 | CCSc1ncnc(OC)c1C(=O)Nc1nc(C(F)(F)F)c(-c2ccccc2C#N)s1 [Example 160, N-[5-(2-cyanophenyl)-4-(trifluoromethyl)-1,3-thiazol-2-yl]-4-(ethylsulfanyl)-6-methoxypyrimidine-5-carboxamide]
3 | 6.30 to 7.00 | COc1nc(C#N)nc(C(F)(F)F)c1C(=O)Nc1nc(C(F)(F)F)c(I)s1 [Example 161, 2-cyano-N-[5-iodo-4-(trifluoromethyl)-1,3-thiazol-2-yl]-4-methoxy-6-(trifluoromethyl)pyrimidine-5-carboxamide]
4 | 6.30 to 7.00 | COc1ncnc(OC)c1C(=O)Nc1nc(C(F)(F)F)c(-c2cnc(C#N)nc2)s1 [Example 162, N-[5-(2-cyanopyrimidin-5-yl)-4-(trifluoromethyl)-1,3-thiazol-2-yl]-4,6-dimethoxypyrimidine-5-carboxamide]
5 | 7.00 to 7.30 | COc1ncnc(OC)c1C(=O)Nc1nc(C(F)(F)F)c(C(F)(F)F)s1 [Example 163, N-[4,5-bis(trifluoromethyl)-1,3-thiazol-2-yl]-4,6-dimethoxypyrimidine-5-carboxamide]
6 | 6.30 to 7.00 | COc1ncnc(OC)c1C(=O)Nc1nc(C(F)(F)F)c(C2=CCC(C#N)CC2)s1 (stereo not shown) [Example 164, N-[5-(4-cyanocyclohex-1-en-1-yl)-4-(trifluoromethyl)-1,3-thiazol-2-yl]-4,6-dimethoxypyrimidine-5-carboxamide]
7 | 6.00 to 6.30 | COc1ncnc(OC)c1C(=O)Nc1nc(C(F)(F)F)c(C2=CCN(S(C)(=O)=O)CC2)s1 [Example 165, 4,6-dimethoxy-N-{5-[1-(methylsulfonyl)-1,2,3,6-tetrahydropyridin-4-yl]-4-(trifluoromethyl)-1,3-thiazol-2-yl}pyrimidine-5-carboxamide]
8 | 7.00 to 7.30 | COc1ncnc(OC)c1C(=O)Nc1nc(C(F)(F)F)c(-c2ccnc(C(F)(F)F)c2)s1 [Example 166, 4,6-dimethoxy-N-{4-(trifluoromethyl)-5-[2-(trifluoromethyl)pyridin-4-yl]-1,3-thiazol-2-yl}pyrimidine-5-carboxamide]
9 | > 7.30 | COc1ncnc(OC)c1C(=O)Nc1nc(C(F)(F)F)c(-c2ccnc3ccccc23)s1 [Example 167, 4,6-dimethoxy-N-[5-(quinolin-4-yl)-4-(trifluoromethyl)-1,3-thiazol-2-yl]pyrimidine-5-carboxamide]
10 | 7.00 to 7.30 | COc1ncnc(OC)c1C(=O)Nc1nc(C(F)(F)F)c(-c2cnn(C3CC3)c2)s1 [Example 168, N-[5-(1-cyclopropyl-1H-pyrazol-4-yl)-4-(trifluoromethyl)-1,3-thiazol-2-yl]-4,6-dimethoxypyrimidine-5-carboxamide]
11 | 6.30 to 7.00 | COc1ncnc(OC)c1C(=O)Nc1nc(C(F)(F)F)c(C2CC(C(C)C)=NO2)s1 (stereo not shown) [Example 170, 4,6-dimethoxy-N-{5-[3-(propan-2-yl)-4,5-dihydro-1,2-oxazol-5-yl]-4-(trifluoromethyl)-1,3-thiazol-2-yl}pyrimidine-5-carboxamide]
12 | 7.00 to 7.30 | COc1ncnc(OC)c1C(=O)Nc1nc(C(F)(F)F)c(-c2cc(C(C)C)no2)s1 [Example 171, 4,6-dimethoxy-N-{5-[3-(propan-2-yl)-1,2-oxazol-5-yl]-4-(trifluoromethyl)-1,3-thiazol-2-yl}pyrimidine-5-carboxamide]
13 | 6.30 to 7.00 | COc1ncnc(OC)c1C(=O)Nc1nc(C(F)(F)F)c(-c2ccc(C(C)(C)C#N)cc2)s1 [Example 173, N-{5-[4-(2-cyanopropan-2-yl)phenyl]-4-(trifluoromethyl)-1,3-thiazol-2-yl}-4,6-dimethoxypyrimidine-5-carboxamide]
14 | > 7.30 | COc1ncnc(OC)c1C(=O)Nc1nc(C(F)(F)F)c(-c2cnn(C(C)C)c2)s1 [Example 174, 4,6-dimethoxy-N-{5-[1-(propan-2-yl)-1H-pyrazol-4-yl]-4-(trifluoromethyl)-1,3-thiazol-2-yl}pyrimidine-5-carboxamide]
15 | > 7.30 | COc1ncnc(OC)c1C(=O)Nc1nc(C(F)(F)F)c(-c2cnn(CC3CC3)c2)s1 [Example 175, N-{5-[1-(cyclopropylmethyl)-1H-pyrazol-4-yl]-4-(trifluoromethyl)-1,3-thiazol-2-yl}-4,6-dimethoxypyrimidine-5-carboxamide]
16 | 6.30 to 7.00 | COc1ncnc(OC)c1C(=O)Nc1nc(C(F)(F)F)c(-c2ccnn2C)s1 [Example 176, 4,6-dimethoxy-N-[5-(1-methyl-1H-pyrazol-5-yl)-4-(trifluoromethyl)-1,3-thiazol-2-yl]pyrimidine-5-carboxamide]

Row | pIC50 | Structure (SMILES)
17 | 6.30 to 7.00 | CCn1cc(-c2sc(NC(=O)c3c(OC)ncnc3OC)nc2C(F)(F)F)cn1 [Example 177, N-[5-(1-ethyl-1H-pyrazol-4-yl)-4-(trifluoromethyl)-1,3-thiazol-2-yl]-4,6-dimethoxypyrimidine-5-carboxamide]
18 | 6.00 to 6.30 | COc1ncnc(OC)c1C(=O)Nc1nc(CCOc2ccc(F)cc2)cs1 [Example 178, N-{4-[2-(4-fluorophenoxy)ethyl]-1,3-thiazol-2-yl}-4,6-dimethoxypyrimidine-5-carboxamide]
19 | 6.30 to 7.00 | COc1ncnc(OC)c1C(=O)Nc1nc(COc2ccccc2C)cs1 [Example 179, 4,6-dimethoxy-N-{4-[(2-methylphenoxy)methyl]-1,3-thiazol-2-yl}pyrimidine-5-carboxamide]
20 | > 7.30 | COc1ncnc(OC)c1C(=O)Nc1nc(C(F)(F)F)c(-c2ccnn2C(C)C)s1 [Example 180, 4,6-dimethoxy-N-{5-[1-(propan-2-yl)-1H-pyrazol-5-yl]-4-(trifluoromethyl)-1,3-thiazol-2-yl}pyrimidine-5-carboxamide]
21 | 7.00 to 7.30 | COc1ncnc(OC)c1C(=O)Nc1nc(C(F)(F)F)c(-c2cn(C)nc2C(C)C)s1 [Example 181, 4,6-dimethoxy-N-{5-[1-methyl-3-(propan-2-yl)-1H-pyrazol-4-yl]-4-(trifluoromethyl)-1,3-thiazol-2-yl}pyrimidine-5-carboxamide]
22 | 7.00 to 7.30 | COc1ncnc(OC)c1C(=O)Nc1nc(C(F)(F)F)c(-c2ccnc(N3CCOCC3)c2)s1 [Example 182, 4,6-dimethoxy-N-{5-[2-(morpholin-4-yl)pyridin-4-yl]-4-(trifluoromethyl)-1,3-thiazol-2-yl}pyrimidine-5-carboxamide]
23 | > 7.30 | COc1ncc(-c2sc(NC(=O)c3c(OC)ncnc3OC)nc2C(F)(F)F)cc1C#N [Example 184, N-[5-(5-cyano-6-methoxypyridin-3-yl)-4-(trifluoromethyl)-1,3-thiazol-2-yl]-4,6-dimethoxypyrimidine-5-carboxamide]
24 | > 7.30 | COc1ncnc(OC)c1C(=O)Nc1nc(C(F)(F)F)c(-c2cccnc2N2CCOCC2)s1 [Example 185, 4,6-dimethoxy-N-{5-[2-(morpholin-4-yl)pyridin-3-yl]-4-(trifluoromethyl)-1,3-thiazol-2-yl}pyrimidine-5-carboxamide]
25 | > 7.30 | COc1ncnc(OC)c1C(=O)Nc1nc(C(F)(F)F)c(-c2cn(C)nc2C(F)(F)F)s1 [Example 186, 4,6-dimethoxy-N-{5-[1-methyl-3-(trifluoromethyl)-1H-pyrazol-4-yl]-4-(trifluoromethyl)-1,3-thiazol-2-yl}pyrimidine-5-carboxamide]
26 | 6.30 to 7.00 | COc1ncnc(OC)c1C(=O)Nc1nc(C(F)(F)F)c(-c2cc3ncccc3o2)s1 [Example 187, N-[5-(furo[3,2-b]pyridin-2-yl)-4-(trifluoromethyl)-1,3-thiazol-2-yl]-4,6-dimethoxypyrimidine-5-carboxamide]
27 | > 7.30 | COc1ncnc(OC)c1C(=O)Nc1nc(C(F)(F)F)c(-c2ccnn2CC2CC2)s1 [Example 188, N-{5-[1-(cyclopropylmethyl)-1H-pyrazol-5-yl]-4-(trifluoromethyl)-1,3-thiazol-2-yl}-4,6-dimethoxypyrimidine-5-carboxamide]
28 | > 7.30 | COc1ncnc(OC)c1C(=O)Nc1nc(C(C)(C)C)c(C#N)s1 [Example 189, N-(4-tert-butyl-5-cyano-1,3-thiazol-2-yl)-4,6-dimethoxypyrimidine-5-carboxamide]
29 | 7.00 to 7.30 | COc1ncnc(OC)c1C(=O)Nc1nc(C2CC2)c(Cc2ccc(F)cc2)s1 [Example 190, N-[4-cyclopropyl-5-(4-fluorobenzyl)-1,3-thiazol-2-yl]-4,6-dimethoxypyrimidine-5-carboxamide]
30 | 7.00 to 7.30 | COc1ncnc(OC)c1C(=O)Nc1nc(CC(C)(C)C)cs1 [Example 191, N-[4-(2,2-dimethylpropyl)-1,3-thiazol-2-yl]-4,6-dimethoxypyrimidine-5-carboxamide]
31 | > 7.30 | COc1ncnc(OC)c1C(=O)Nc1nc(C(C)(C)C)c(Br)s1 [Example 192, N-(5-bromo-4-tert-butyl-1,3-thiazol-2-yl)-4,6-dimethoxypyrimidine-5-carboxamide]
